A word on the IC50: it is the concentration that gives 50% inhibition.

The text below walks through data of patent US8916565B2, “Pyrrolopyrazine-spirocyclic piperidine amides as modulators of ion channels” (priority 2011, dated 2014).

For this experiment, the target named is human NaV subtype, like NaV 1.7 (Homo sapiens, UniProt Q15858). The experiment is described as follows: E-VIPR optical membrane potential assay with electrical stimulation. Type of experiment: cell-based. The conditions noted are these: active against one or more sodium channels; Table 3 does not name the assay or NaV subtype; read-out: Binned Activity Data (IC50).

Structures are written as SMILES.

human NaV subtype, like NaV 1.7, sequence (Q15858 whole entry): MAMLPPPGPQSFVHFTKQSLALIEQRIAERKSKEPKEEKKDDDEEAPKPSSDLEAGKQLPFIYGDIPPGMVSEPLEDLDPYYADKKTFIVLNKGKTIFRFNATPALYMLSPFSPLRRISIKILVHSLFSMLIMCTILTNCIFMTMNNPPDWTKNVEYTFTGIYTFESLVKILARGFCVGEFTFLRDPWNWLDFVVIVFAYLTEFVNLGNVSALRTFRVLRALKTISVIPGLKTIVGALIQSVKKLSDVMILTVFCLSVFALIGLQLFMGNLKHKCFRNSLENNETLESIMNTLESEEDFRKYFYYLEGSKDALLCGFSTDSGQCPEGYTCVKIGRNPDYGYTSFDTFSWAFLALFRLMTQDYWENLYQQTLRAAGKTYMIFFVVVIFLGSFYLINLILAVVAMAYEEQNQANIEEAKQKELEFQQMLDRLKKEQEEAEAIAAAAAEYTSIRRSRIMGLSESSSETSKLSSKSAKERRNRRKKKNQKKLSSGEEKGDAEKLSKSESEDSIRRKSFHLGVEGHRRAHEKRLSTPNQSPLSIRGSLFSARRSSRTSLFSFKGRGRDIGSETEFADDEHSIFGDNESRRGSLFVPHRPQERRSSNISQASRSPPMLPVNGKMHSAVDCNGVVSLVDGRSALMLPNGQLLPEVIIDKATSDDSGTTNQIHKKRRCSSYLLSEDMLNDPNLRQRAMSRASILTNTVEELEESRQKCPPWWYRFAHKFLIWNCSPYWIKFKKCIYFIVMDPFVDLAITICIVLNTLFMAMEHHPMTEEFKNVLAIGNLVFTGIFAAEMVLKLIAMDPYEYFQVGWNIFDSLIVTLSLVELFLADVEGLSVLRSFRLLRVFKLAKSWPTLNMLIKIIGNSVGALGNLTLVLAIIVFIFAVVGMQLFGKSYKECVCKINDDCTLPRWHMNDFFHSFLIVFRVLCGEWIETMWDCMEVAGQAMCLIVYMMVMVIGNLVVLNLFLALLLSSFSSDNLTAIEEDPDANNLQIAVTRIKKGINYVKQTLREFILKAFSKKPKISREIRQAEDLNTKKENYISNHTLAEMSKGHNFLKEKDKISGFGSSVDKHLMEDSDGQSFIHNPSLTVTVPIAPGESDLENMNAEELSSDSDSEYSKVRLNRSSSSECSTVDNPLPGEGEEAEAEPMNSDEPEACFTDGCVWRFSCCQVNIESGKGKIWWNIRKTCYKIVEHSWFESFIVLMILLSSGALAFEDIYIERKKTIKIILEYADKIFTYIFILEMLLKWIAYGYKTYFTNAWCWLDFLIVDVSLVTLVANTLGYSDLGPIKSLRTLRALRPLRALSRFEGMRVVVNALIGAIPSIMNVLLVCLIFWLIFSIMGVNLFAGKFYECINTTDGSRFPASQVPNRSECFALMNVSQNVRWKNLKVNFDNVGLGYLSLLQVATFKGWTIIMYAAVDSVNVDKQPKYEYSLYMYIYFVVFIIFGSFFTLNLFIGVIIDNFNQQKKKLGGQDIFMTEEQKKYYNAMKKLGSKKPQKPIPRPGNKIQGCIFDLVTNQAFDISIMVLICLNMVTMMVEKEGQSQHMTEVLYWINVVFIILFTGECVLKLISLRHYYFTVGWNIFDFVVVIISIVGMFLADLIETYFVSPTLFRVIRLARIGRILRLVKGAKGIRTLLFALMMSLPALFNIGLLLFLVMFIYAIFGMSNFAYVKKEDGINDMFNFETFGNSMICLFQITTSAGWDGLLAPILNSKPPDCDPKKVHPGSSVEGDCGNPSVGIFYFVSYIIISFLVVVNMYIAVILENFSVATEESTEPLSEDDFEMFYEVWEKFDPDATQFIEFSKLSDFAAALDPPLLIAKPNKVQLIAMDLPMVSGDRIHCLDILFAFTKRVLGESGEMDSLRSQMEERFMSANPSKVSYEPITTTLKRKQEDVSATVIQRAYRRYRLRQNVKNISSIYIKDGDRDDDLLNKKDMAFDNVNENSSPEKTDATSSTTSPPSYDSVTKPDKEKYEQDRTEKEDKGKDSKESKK

In the case of `C[C@H]1Cn2c(C(=O)C(F)(F)F)ccc2C2(CCN(C(=O)c3ccccc3OC(F)F)CC2)N1C` [Compound 552], the IC50 was no more than 2 µM.
Consider `CN1CCn2c(C(=O)C(F)(F)F)ccc2C12CCN(C(=O)c1ccc(COCC(F)(F)F)cc1)CC2` [Compound 553], for which the IC50 is no more than 2 µM.
As for `COc1cc(C(=O)N2CCC3(CC2)c2c(Cl)cc(C(F)(F)F)n2CCN3C)ccc1COCCC(F)(F)F` [Compound 554], the IC50 was no more than 2 µM.
For `COc1cc(C(=O)N2CCC3(CC2)c2ccc(C(=O)C(F)(F)F)n2CCN3C)ccc1-c1ccccc1` [Compound 555], the IC50 is no more than 2 µM.
On to `Cc1nc(C(=O)N2CCC3(CC2)c2ccc(C(=O)C(F)(F)F)n2C(C)CN3C)ccc1OC(C)C` (stereo not drawn) [Compound 556], for which the IC50 was no more than 2 µM.
`CC(C)S(=O)(=O)c1ccc(C(=O)N2CCC3(CC2)NC(C)(C)Cn2c(C(=O)C(F)(F)F)ccc23)cc1` [Compound 557]: the IC50 is no more than 2 µM.
Take `CC(=O)c1ccc2n1CCN(C)C21CCN(C(=O)c2ccc(OC(C)C)c(CO)c2)CC1` [Compound 558]: the IC50 was greater than 5 µM.
`CC(=O)c1ccc2n1CCN(C)C21CCN(C(=O)c2ccc(C3CCCCC3)cc2)CC1` [Compound 559]: the IC50 was no more than 2 µM.
Take `Cc1cc(C(=O)N2CCC3(CC2)c2c(Cl)cc(C(F)(F)F)n2CCN3C)ccc1OC(C)C` [Compound 560]: the half-inhibitory concentration (IC50) is no more than 2 µM.
With `CNS(=O)(=O)c1ccc(C(=O)N2CCC3(CC2)c2ccc(C(=O)C(C)(C)C)n2CCN3C)cc1C` [Compound 561], the concentration for half-maximal inhibition (IC50) was no more than 2 µM.
Take `CC(C)Oc1ccc(C(=O)N2CCC3(CC2)c2c(F)cc(C(F)(F)F)n2CCN3C)cc1` [Compound 562]: the IC50 is no more than 2 µM.
As for `CC1(C)Cn2c(C(=O)C(F)(F)F)ccc2C2(CCN(C(=O)c3ccc(C4CCCCC4)cc3)CC2)N1` [Compound 563], the IC50 is no more than 2 µM.
With `CC(C)Oc1ccc(C(=O)N2CCC3(CC2)c2ccc(C(=O)C(F)(F)F)n2C[C@@H](C)N3C)c(F)c1` [Compound 564], the IC50 was no more than 2 µM.
With `COc1ccc(C(=O)N2CCC3(CC2)c2cc(C(=O)C(F)(F)F)cn2C(C)(C)CN3C)c(F)c1` [Compound 565], the half-maximal inhibitory concentration (IC50) lay within 2 to 5 µM.
In the case of `COc1ccc(C(=O)N2CCC3(CC2)c2ccc(C(=O)C(C)(C)C)n2CCN3C)cc1C(F)(F)F` [Compound 566], the IC50 was no more than 2 µM.
`CC1(C)Cn2c(C(=O)C(F)(F)F)ccc2C2(CCN(C(=O)c3ccc(O)c(C(F)(F)F)c3)CC2)N1` [Compound 567]: the IC50 was no more than 2 µM.
As to `CC(C)Oc1ccc(C(=O)N2CCC3(CC2)c2ccc(C(F)(F)F)n2CCN3C)cc1F` [Compound 568], the IC50 was no more than 2 µM.
The figure for `O=C(c1ccc(S(=O)(=O)NC2CC2)cc1)N1CCC2(CC1)NCCn1c(C(F)(F)F)ccc12` [Compound 569] is no more than 2 µM; for `Cc1cc(C(=O)N2CCC3(CC2)c2ccc(C(=O)C(F)(F)F)n2CCN3C)ccc1OCC(C)(C)O` [Compound 570] it is no more than 2 µM; for `Cc1cc(C(=O)N2CCC3(CC2)c2ccc(C(F)(F)F)n2CCN3CC(N)=O)ccc1OC(C)C` [Compound 571] it is 2 to 5 µM.
For the molecule `CC[C@@H](C)Oc1ccc(C(=O)N2CCC3(CC2)c2ccc(C(C)=O)n2CCN3C)cc1OC` [Compound 572], the IC50 was no more than 2 µM.
Turning to `Cc1cc(C(=O)N2CCC3(CC2)c2ccc(C(=O)C(F)(F)F)n2CCN3C)ncc1OC(C)C` [Compound 573], the IC50 is no more than 2 µM.
Consider `COc1cc(C(=O)N2CCC3(CC2)c2ccc(C(F)(F)F)n2CCN3CC2CC2)ccc1OC(C)C` [Compound 574], for which the IC50 is no more than 2 µM.
As for `CN1CCn2c(C(=O)C(F)(F)F)ccc2C12CCN(C(=O)c1ccc(C(C)(C)O)c(F)c1)CC2` [Compound 575], the IC50 is no more than 2 µM.
With `CC1(C)Cn2c(C(=O)C(F)(F)F)ccc2C2(CCN(C(=O)c3ccc(-c4ccccc4)c(F)c3)CC2)N1` [Compound 576], the IC50 is no more than 2 µM.
For `CC(=O)c1ccc2n1CCN(C)C21CCN(C(=O)c2ccc(OC(F)(F)F)cc2)CC1` [Compound 577], the half-inhibitory concentration (IC50) is greater than 5 µM.
The figure for `COc1ccc(C(=O)N2CCC3(CC2)c2ccc(C(=O)C(C)(C)C)n2CCN3C)c(F)c1` [Compound 578] is 2 to 5 µM; for `CCOc1cc(C(=O)N2CCC3(CC2)c2ccc(C(F)(F)F)n2CCN3C)ccc1CO` [Compound 579] it is no more than 2 µM.
The figure for `Cc1cc(C(=O)N2CCC3(CC2)c2ccc(C(F)(F)F)n2CCN3C)ccc1OC(C)C` [Compound 580] is no more than 2 µM; for `CN1CCn2c(C(F)(F)F)ccc2C12CCN(C(=O)c1ccnc(N3CCCCC3)c1)CC2` [Compound 581] it is 2 to 5 µM.
The figure for `CN1CCn2c(C(=O)C(F)(F)F)ccc2C12CCN(C(=O)c1ccc(N3CCCCC3)cc1)CC2` [Compound 582] is no more than 2 µM; for `Cc1cc(C(=O)N2CCC3(CC2)c2ccc(C(F)(F)F)n2CCN3C)ccc1OCCCO` [Compound 583] it is no more than 2 µM.
For the molecule `CN1CCn2c(C(F)(F)F)ccc2C12CCN(C(=O)c1ccc(S(=O)(=O)NC3CC3)cc1)CC2` [Compound 584], the IC50 was no more than 2 µM.
With `CN1CCn2c(C(=O)C3(C)CC3)ccc2C12CCN(C(=O)c1ccc(COCCC(F)(F)F)cc1)CC2` [Compound 585], the IC50 was no more than 2 µM.
Take `CCCOc1ccc(C(=O)N2CCC3(CC2)c2ccc(C(C)=O)n2CCN3C)cc1OC` [Compound 586]: the IC50 was in the range of 2 to 5 µM.
Regarding `CN1CCn2c(ccc2C(F)(F)C(F)(F)F)C12CCN(C(=O)c1ccc(C3(O)CCCC3)cc1)CC2` [Compound 587], the IC50 is no more than 2 µM.
In the case of `CC(C)Oc1ccc(C(=O)N2CCC3(CC2)c2cc(C(=O)C(F)(F)F)cn2C(C)(C)CN3C)cc1Cl` [Compound 588], the IC50 was greater than 5 µM.
`COc1cc(C(=O)N2CCC3(CC2)NC(C)(C)Cn2c(C(=O)C(F)(F)F)ccc23)ccc1-c1ccccc1` [Compound 589]: the IC50 is no more than 2 µM.
Take `CCCOc1ccc(C(=O)N2CCC3(CC2)c2ccc(Cl)n2CCN3C)cc1` [Compound 590]: the IC50 fell in the range of 2 to 5 µM.
With `CCC(=O)c1ccc2n1CCN(C)C21CCN(C(=O)c2ccc(C(C)(C)O)c(C)c2)CC1` [Compound 591], the IC50 was no more than 2 µM.
For `CCCCOc1ccc(C(=O)N2CCC3(CC2)c2ccc(C(=O)C(F)(F)F)n2CCN3C)cc1` [Compound 592], the IC50 was no more than 2 µM.
With `Cc1cc(C(=O)N2CCC3(CC2)c2ccc(CC(F)(F)F)n2CCN3C)ccc1C(C)(C)O` [Compound 593], the IC50 is no more than 2 µM.
Take `COc1cc(C(=O)N2CCC3(CC2)NCCn2c(C(F)(F)F)ccc23)ccc1O` [Compound 594]: the IC50 is greater than 5 µM.
Consider `COc1ccc(C(=O)N2CCC3(CC2)NCC(C)n2c(C(=O)C(F)(F)F)ccc23)cc1C` (stereo not drawn) [Compound 595], for which the IC50 is no more than 2 µM.
Take `COc1ccc(C(=O)N2CCC3(CC2)c2ccc(C(=O)C(F)(F)F)n2C(C)(C)CN3C)cc1C(F)(F)F` [Compound 596]: the IC50 was greater than 5 µM.
Consider `Cc1ccc(C(=O)N2CCC3(CC2)c2ccc(C(=O)C(F)(F)F)n2CCN3C)cc1O` [Compound 597], for which the IC50 was greater than 5 µM.
On to `Cc1cc(C(=O)N2CCC3(CC2)NC(C)(C)Cn2c(C(F)(F)F)ccc23)ccc1OC(C)C` [Compound 598], for which the IC50 was no more than 2 µM.
`CC(C)Oc1ccc(C(=O)N2CCC3(CC2)c2ccc(Cl)n2CCN3C)cc1C(F)(F)F` [Compound 599]: the IC50 was no more than 2 µM.
